Experimental data: patent US8383618B2, “C2-fluoro substituted piperazine linked pyrrolo[2,1-C][1,4] benzodiazepine dimers and a process for the preparation thereof” (Council of Scientific & Industrial Research, priority 2008, dated 2013)

What was measured:
calf thymus (CT) DNA = experiment: Thermal denaturation studies; type: binding; conditions: [PBD]:[DNA] molar ratio 1:5; CT-DNA 100 μM, ligand 20 μM; sodium phosphate buffer pH 7.00
Experimental: The DNA binding affinity of the C2-Fluoro substituted piperazine linked pyrrolo[2,1c][1,4]benzodiazepine dimers were subjected to thermal denaturation studies using calf thymus (CT) DNA (Jones, G. B.; Davey, C. L.; Jenkins, T. C.; Kamal, A.; Kneale, G. G.; Neidle, S.; Webster, G. D.; Thurston, D. E. Anti-cancer Drug Des. 1990, 5, 249. McConnaughie, A. W.; Jenkins, T. C. J. Med. Chem. 1995, 38, 3488). The studies for these compounds (IXa-f) were carried out by DNA/ligand molar ratio is 1:5 the increase in the helix melting temperature (ΔTm) for each compound was examined at 0 h. […] Data for DSB-120 and SJG-136 are included in Table-3 for comparison. The synthetic DC-81 dimer (DSB-120) gives a ΔTm 10.2° C. and SJC-136 gives a […]Tm of 25° C. under identical experimental condition.

NCI-H460 = experiment: NCI in vitro anticancer screen (SRB); type: cell-based, human; conditions: Non-small cell lung, 48 h exposure
Experimental: (§1) The above compounds were evaluated for in vitro anticancer activity against sixty human tumor cells derived from nine cancer types (leukemia, non small cell cancer, colon cancer CNS cancer, melanoma, ovarian cancer renal cancer, prostate cancer and breast cancer) as per NCI protocol. For each compound, dose response curves for each cell line were measured at a minimum of five concentrations at 10-fold dilution. A protocol of 48 h continuous drug exposure was used, and a sulforhodamine B (SRB) protein assay was used to estimate cell viability or growth. The concentration causing 50% cell growth inhibition (GI50), total cell growth inhibition (TGI, 0% growth) and 50% cell death (LC-50% growth) compared with the control was calculated.

SNB-75 = experiment: NCI in vitro anticancer screen (SRB); type: cell-based, human; conditions: CNS, 48 h exposure
Experimental: as §1

SR = experiment: NCI in vitro anticancer screen (SRB); type: cell-based, human; conditions: Leukemia, 48 h exposure
Experimental: as §1

786-0 = experiment: NCI in vitro anticancer screen (SRB); type: cell-based, human; conditions: Renal, 48 h exposure
Experimental: as §1

SK-MEL-5 = experiment: NCI in vitro anticancer screen (SRB); type: cell-based, human; conditions: Melanoma, 48 h exposure
Experimental: as §1

UACC-62 = experiment: NCI in vitro anticancer screen (SRB); type: cell-based, human; conditions: Melanoma, 48 h exposure
Experimental: as §1

SK-MEL-28 = experiment: NCI in vitro anticancer screen (SRB); type: cell-based, human; conditions: Melanoma, 48 h exposure
Experimental: as §1

BT-549 = experiment: NCI in vitro anticancer screen (SRB); type: cell-based, human; conditions: Breast, 48 h exposure
Experimental: as §1

HS 578T = experiment: NCI in vitro anticancer screen (SRB); type: cell-based, human; conditions: Breast, 48 h exposure
Experimental: as §1

SNB-19 = experiment: NCI in vitro anticancer screen (SRB); type: cell-based, human; conditions: CNS, 48 h exposure
Experimental: as §1

A498 = experiment: NCI in vitro anticancer screen (SRB); type: cell-based, human; conditions: Renal, 48 h exposure
Experimental: as §1

HOP-92 = experiment: NCI in vitro anticancer screen (SRB); type: cell-based, human; conditions: Non-small cell lung, 48 h exposure
Experimental: as §1

LOX IMVI = experiment: NCI in vitro anticancer screen (SRB); type: cell-based, human; conditions: Melanoma, 48 h exposure
Experimental: as §1

CAKI-1 = experiment: NCI in vitro anticancer screen (SRB); type: cell-based, human; conditions: Renal, 48 h exposure
Experimental: as §1

SF-539 = experiment: NCI in vitro anticancer screen (SRB); type: cell-based, human; conditions: CNS, 48 h exposure
Experimental: as §1

SW-620 = experiment: NCI in vitro anticancer screen (SRB); type: cell-based, human; conditions: Colon, 48 h exposure
Experimental: as §1

MDA-MB-435 = experiment: NCI in vitro anticancer screen (SRB); type: cell-based, human; conditions: Breast, 48 h exposure
Experimental: as §1

COLO 205 = experiment: NCI in vitro anticancer screen (SRB); type: cell-based, human; conditions: Colon, 48 h exposure
Experimental: as §1

PC-3 = experiment: NCI in vitro anticancer screen (SRB); type: cell-based, human; conditions: Prostate, 48 h exposure
Experimental: as §1

MALME-3M = experiment: NCI in vitro anticancer screen (SRB); type: cell-based, human; conditions: Melanoma, 48 h exposure
Experimental: as §1

IGROV1 = experiment: NCI in vitro anticancer screen (SRB); type: cell-based, human; conditions: Ovarian, 48 h exposure
Experimental: as §1

M14 = experiment: NCI in vitro anticancer screen (SRB); type: cell-based, human; conditions: Melanoma, 48 h exposure
Experimental: as §1

MDA-MB-468 = experiment: NCI in vitro anticancer screen (SRB); type: cell-based, human; conditions: Breast, 48 h exposure
Experimental: as §1

NCI-H522 = experiment: NCI in vitro anticancer screen (SRB); type: cell-based, human; conditions: Non-small cell lung, 48 h exposure
Experimental: as §1

NCI-H23 = experiment: NCI in vitro anticancer screen (SRB); type: cell-based, human; conditions: Non-small cell lung, 48 h exposure
Experimental: as §1

DU-145 = experiment: NCI in vitro anticancer screen (SRB); type: cell-based, human; conditions: Prostate, 48 h exposure
Experimental: as §1

CCRF-CEM = experiment: NCI in vitro anticancer screen (SRB); type: cell-based, human; conditions: Leukemia, 48 h exposure
Experimental: as §1

HCT-116 = experiment: NCI in vitro anticancer screen (SRB); type: cell-based, human; conditions: Colon, 48 h exposure
Experimental: as §1

RPMI-8226 = experiment: NCI in vitro anticancer screen (SRB); type: cell-based, human; conditions: Leukemia, 48 h exposure
Experimental: as §1

HOP-62 = experiment: NCI in vitro anticancer screen (SRB); type: cell-based, human; conditions: Non-small cell lung, 48 h exposure
Experimental: as §1

SK-OV-3 = experiment: NCI in vitro anticancer screen (SRB); type: cell-based, human; conditions: Ovarian, 48 h exposure
Experimental: as §1

T-47D = experiment: NCI in vitro anticancer screen (SRB); type: cell-based, human; conditions: Breast, 48 h exposure
Experimental: as §1

HL-60(TB) = experiment: NCI in vitro anticancer screen (SRB); type: cell-based, human; conditions: Leukemia, 48 h exposure
Experimental: as §1

SK-MEL-2 = experiment: NCI in vitro anticancer screen (SRB); type: cell-based, human; conditions: Melanoma, 48 h exposure
Experimental: as §1

U251 = experiment: NCI in vitro anticancer screen (SRB); type: cell-based, human; conditions: CNS, 48 h exposure
Experimental: as §1

SF-268 = experiment: NCI in vitro anticancer screen (SRB); type: cell-based, human; conditions: CNS, 48 h exposure
Experimental: as §1

OVCAR-3 = experiment: NCI in vitro anticancer screen (SRB); type: cell-based, human; conditions: Ovarian, 48 h exposure
Experimental: as §1

MOLT-4 = experiment: NCI in vitro anticancer screen (SRB); type: cell-based, human; conditions: Leukemia, 48 h exposure
Experimental: as §1

K-562 = experiment: NCI in vitro anticancer screen (SRB); type: cell-based, human; conditions: Leukemia, 48 h exposure
Experimental: as §1

SN12C = experiment: NCI in vitro anticancer screen (SRB); type: cell-based, human; conditions: Renal, 48 h exposure
Experimental: as §1

MCF7 = experiment: NCI in vitro anticancer screen (SRB); type: cell-based, human; conditions: Breast, 48 h exposure
Experimental: as §1

[1] = test system: sixty human tumor cells derived from nine cancer types; experiment: NCI in vitro anticancer screen (SRB), whole panel; type: cell-based
Experimental: as §1

[2] = human tumor cell lines, 48 h drug exposure, SRB

Q: With `COc1cc2c(cc1OCCCCCN1CCN(CCCCCOc3cc4c(cc3OC)C(=O)N3CC(F)(F)C[C@H]3C=N4)CC1)N=C[C@@H]1CC(F)(F)CN1C2=O` [IXf, 1,1′-{[(bispentane-1,N-diyl)piperazine]dioxy}bis[(11aS)-2-2-difluoro-7-methoxy-1,2,3,11a-tetrahydro-5H-pyrrolo[2,1-c][1,4]benzodiazepine-5-one]] as the molecule, how does the “ΔTm after incubation at 37° C. for 0 h” value (calf thymus (CT) DNA) read?
A: 13.0 °C

Q: With “1,1′-{[(bispentane-1,N-diyl)piperazine]dioxy}bis[(11aS)-2-fluoro-7-methoxy-1,2,3,11a-tetrahydro-5H-pyrrolo[2,1-c][1,4]benzodiazepine-5-one] [IXc]” as the molecule, how does the “ΔTm after incubation at 37° C. for 0 h” value (calf thymus (CT) DNA) read?
A: 37.0 °C

Q: What does the source list for `COc1cc2c(cc1OCCCN1CCN(CCCOc3cc4c(cc3OC)C(=O)N3CC(F)C[C@H]3C=N4)CC1)N=C[C@@H]1CC(F)CN1C2=O` (stereo partly drawn) [Compound IXa, 1,1′-{[(bispropane-1,N-diyl)piperazine]dioxy}bis[(11aS)-2-fluoro-7-methoxy-1,2,3,11a-tetrahydro-5H-pyrrolo[2,1-c][1,4]benzodiazepine-5-one]]?
A: ΔTm after incubation at 37° C. for 0 h (calf thymus (CT) DNA): 37.0 °C; GI50 (NCI-H460): 10 nM; GI50 (SNB-75): 33 nM; GI50 (SR): 10 nM; GI50 (786-0): 39 nM; GI50 (SK-MEL-5): 31 nM; GI50 (UACC-62): 26 nM; GI50 (SK-MEL-28): 31 nM; GI50 (SK-MEL-28; listed as IX a): 43 nM; GI50 (BT-549): 95 nM; GI50 (HS 578T): 48 nM; GI50 (SNB-19): 28 nM; GI50 (A498): 66 nM; GI50 (HOP-92): 96 nM; GI50 (LOX IMVI): 17 nM; GI50 (CAKI-1): 28 nM; GI50 (SF-539): 11 nM; GI50 (SW-620): 56 nM; GI50 (MDA-MB-435): 34 nM; GI50 (COLO 205): 40 nM; GI50 (PC-3): 15 nM; GI50 (MALME-3M): 24 nM; GI50 (IGROV1): 59 nM; GI50 (M14): 35 nM; GI50 (MDA-MB-468): 10 nM; GI50 (NCI-H522): 10 nM; GI50 (NCI-H23): 32 nM; GI50 (DU-145): 47 nM; GI50 (CCRF-CEM): 10 nM; GI50 (HCT-116): 28 nM; GI50 (RPMI-8226): 22 nM; GI50 (HOP-62): 12 nM; GI50 (SK-OV-3): 70 nM; GI50 (T-47D): 13 nM; GI50 (HL-60(TB)): 10 nM; GI50 (SK-MEL-2): 43 nM; GI50 (U251): 15 nM; GI50 (SF-268): 11 nM; GI50 (OVCAR-3): 48 nM; GI50 (MOLT-4): 10 nM; GI50 (K-562): 15 nM; GI50 (SN12C): 18 nM; GI50 (MCF7): 10 nM; GI50 ([1]; against fifty nine cell lines in nine cell panels): < 95 nM; Log10 GI50 mean graph midpoint (MG_MID) [1, 2]: −7.28; Log10 LC50 mean graph midpoint (MG_MID) [1, 2]: −4.65; Log10 TGI mean graph midpoint (MG_MID) [1, 2]: −6.12

Q: “1,1′-{[(bisbutane-1,N-diyl)piperazine]dioxy}bis[(11aS)-2-fluoro-7-methoxy-1,2,3,11a-tetrahydro-5H-pyrrolo[2,1-c][1,4]benzodiazepine-5-one] [IXb]” was tested. Which “ΔTm after incubation at 37° C. for 0 h” value (calf thymus (CT) DNA) did it give?
A: 38.0 °C
